Read-outs that look alike come from different tables or passages of the source. Residues, ends and D or L forms follow the SMILES beside them.
Key:
hSSTR3 = biological target: T1, hSSTR3 (Homo sapiens, UniProt P32745); assay: Somatostatin receptor radioligand binding assay, hSSTR3; details: CHO-K1 cell membranes, [125I-Tyr11]-SRIF-14; read-out: hSSTR3 Ki (nM) ± SEM
T1 construct: expressed in transfected cells; membranes
Experimental: (§1) The affinities of a test compound for the human somatostatin receptors were determined by radioligand binding assays in CHO-K1 cells stably transfected with each of the somatostatin receptor subtypes, hSSTR1-5. The cDNA coding sequences of the hSSTR1 (GenBank accession No. NM_001049.1), hSSTR2 (GenBank accession No. XM_012697.1), hSSTR3 (GenBank accession No. XM_009963.1), hSSTR4 (GenBank accession No. NM_001052.1) and hSSTR5 (GenBank accession No. XM_012565.1) were subcloned into the mammalian expression vector pcDNA3.1 (Life Technologies). Clonal cell lines stably expressing each of the somatostatin receptors were obtained by transfection into CHO-K1 cells (ATCC) and subsequently selected with culture media containing 0.8 mg/mL of G418 (Life Technologies).
(§2) Membranes for in vitro receptor binding assays were obtained by the following procedures. CHO-K1 cells expressing one of the somatostatin receptors were homogenized in ice-cold buffer with 10 mM Tris-HCl, 5 mM EDTA, 3 mM EGTA, 1 mM phenylmethylsuphonyl fluoride, pH 7.6, using Polytron PT10-35GT (Kinematica) at 18,000 rpm for 30 seconds and centrifuged at 500×g for 10 minutes. The supernatant containing the plasma membranes was centrifuged at 100,000×g for 30 minutes and the pellet was resuspended in buffer containing 20 mM glycine-glycine, 1 mM MgCl2, 250 mM sucrose, pH 7.2, for storage at −80° C. […]

hSSTR4 = biological target: T2, hSSTR4 (Homo sapiens, UniProt P31391); assay: Somatostatin receptor radioligand binding assay, hSSTR4; details: CHO-K1 cell membranes, [125I-Tyr11]-SRIF-14; read-out: hSSTR4 Ki (nM) ± SEM
T2 construct: expressed in transfected cells; membranes
Experimental: as §1, §2

hSSTR1 = biological target: T3, hSSTR1 (Homo sapiens, UniProt P30872); assay: Somatostatin receptor radioligand binding assay, hSSTR1; details: CHO-K1 cell membranes, [125I-Tyr11]-SRIF-14; read-out: hSSTR1 Ki (nM) ± SEM
T3 construct: expressed in transfected cells; membranes
Experimental: as §1, §2

hSSTR5 = biological target: T4, hSSTR5 (Homo sapiens, UniProt P35346); assay: Somatostatin receptor radioligand binding assay, hSSTR5; details: CHO-K1 cell membranes, [125I-Tyr]-DPhe-cyclo(Cys-Tyr-DTrp-Lys-Val-Cys)-Thr-NH2; read-out: hSSTR5 Ki (nM) ± SEM
T4 construct: expressed in transfected cells; membranes
Experimental: as §1, §2

hSSTR2 [1] = biological target: T5, hSSTR2 (Homo sapiens, UniProt P30874); assay: Somatostatin receptor radioligand binding assay, hSSTR2
T5 construct: expressed in transfected cells
Experimental: as §1
Membranes for in vitro receptor binding assays were obtained by the following procedures. CHO-K1 cells expressing one of the somatostatin receptors were homogenized in ice-cold buffer with 10 mM Tris-HCl, 5 mM EDTA, 3 mM EGTA, 1 mM phenylmethylsuphonyl fluoride, pH 7.6, using Polytron PT10-35GT (Kinematica) at 18,000 rpm for 30 seconds and centrifuged at 500×g for 10 minutes. The supernatant containing the plasma membranes was centrifuged at 100,000×g for 30 minutes and the pellet was resuspended in buffer containing 20 mM glycine-glycine, 1 mM MgCl2, 250 mM sucrose, pH 7.2, for storage at −80° C.
For the hSSTR1, 2 and 5 assays, membranes and various concentrations of test compounds were incubated in 96-well plates for 60 minutes at 25° C. with 0.05 nM [^125I-Tyr^11]-SRIF-14 (for hSSTR1; PerkinElmer Life Science), 0.05 nM [^125I-Tyr]-seglitide (for hSSTR2; PerkinElmer Life Science) or 0.05 nM [^125I-Tyr]-DPhe-cyclo(Cys-Tyr-DTrp-Lys-Val-Cys)-Thr-NH2 (for hSSTR5; PerkinElmer Life Science) in 50 mM HEPES, 0.2% BSA, 0.1 mM MgCl2, pH 7.5.
The incubations were terminated by rapid filtration through GF/C glass microfiber filter plates (pre-wet with 0.3% polyethyleneimine and 0.1% BSA) using a 96-well cell harvester (Brandel). Plates were washed six times with 1 mL/well aliquots of ice-cold buffer containing 50 mM Tris buffer, pH 7.7. Specific binding is defined as the total radioligand bound minus the bound in the presence of 1000 nM SRIF-14.

hSSTR2 [2] = biological target: T5, hSSTR2; assay: Intracellular calcium mobilization assay (FLIPR Calcium 4 assay kit); format: cell-based; details: for Emax: maximal effect in percentage of the maximal effect of SRIF-14, read-out: hSSTR2 % Emax ± SEM
Experimental: The ability of select compounds according to the present invention to activate hSSTR2 was determined by the intracellular calcium mobilization assay using FLIPR Calcium 4 assay kit (Molecular Devices).
Cells expressing hSSTR2 were plated in 384-well microplates in tissue culture media and incubated for 16-24 hours at 37° C. in a humidified atmosphere with 5% CO2. Medium was replaced by loading buffer containing Hank's buffered saline, 20 mM HEPES, 2.5 mM probenecid and Calcium 4 dye, and the plates were incubated at 37° C. for 60 minutes. Various concentrations of the test compounds were applied to the cells during the fluorescence measurement with excitation at 485 nm and emission at 525 nm using the Flexstation III microplate reader (Molecular Devices).
The half maximal effective concentrations (EC50) were calculated by fitting data to sigmoid dose-response curves using GraphPad Prism version 5.03 (GraphPad Software, San Diego, Calif., USA). % Emax values represent the maximal effect of the test compound in percentage of the maximal effect of SRIF-14.
Reference Compound No. A, whose chemical name and corresponding structure are provided in Table V, was synthesized and its ability to activated hSSTR2 was determined by the same intracellular calcium mobilization assays using FLIPR Calcium 4 assay kit (Molecular Devices) and under the same experimental conditions for the test compounds, as described hereinabove, and the results thereof are provided in Table VI.

[3] = CHO-K1 cell membranes, [125I-Tyr]-seglitide, read-out: hSSTR2 Ki (nM) ± SEM
[4] = cells expressing hSSTR2, calcium mobilization, read-out: hSSTR2 EC50 (nM) ± SEM

T5 sequence (P30874 whole entry): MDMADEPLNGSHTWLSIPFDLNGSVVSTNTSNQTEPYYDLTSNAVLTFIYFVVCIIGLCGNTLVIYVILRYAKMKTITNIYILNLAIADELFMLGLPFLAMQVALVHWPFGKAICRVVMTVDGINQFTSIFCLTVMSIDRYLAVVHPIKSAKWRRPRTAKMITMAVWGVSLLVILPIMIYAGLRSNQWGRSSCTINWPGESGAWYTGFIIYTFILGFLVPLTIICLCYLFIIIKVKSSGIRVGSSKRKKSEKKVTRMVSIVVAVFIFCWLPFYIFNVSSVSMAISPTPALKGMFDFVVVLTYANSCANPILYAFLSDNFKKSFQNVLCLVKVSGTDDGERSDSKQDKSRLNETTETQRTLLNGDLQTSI
T2 sequence (P31391 whole entry): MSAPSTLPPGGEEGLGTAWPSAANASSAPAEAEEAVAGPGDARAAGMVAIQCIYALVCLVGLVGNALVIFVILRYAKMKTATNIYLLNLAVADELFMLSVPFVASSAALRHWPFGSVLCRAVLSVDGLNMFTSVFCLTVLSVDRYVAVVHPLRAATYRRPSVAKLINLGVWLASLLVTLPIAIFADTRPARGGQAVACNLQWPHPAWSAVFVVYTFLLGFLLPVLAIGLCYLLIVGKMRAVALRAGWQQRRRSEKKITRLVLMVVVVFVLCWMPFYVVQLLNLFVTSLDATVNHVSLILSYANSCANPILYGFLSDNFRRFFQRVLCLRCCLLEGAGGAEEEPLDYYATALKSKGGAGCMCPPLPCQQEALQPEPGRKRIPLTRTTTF
T1 sequence (P32745 whole entry): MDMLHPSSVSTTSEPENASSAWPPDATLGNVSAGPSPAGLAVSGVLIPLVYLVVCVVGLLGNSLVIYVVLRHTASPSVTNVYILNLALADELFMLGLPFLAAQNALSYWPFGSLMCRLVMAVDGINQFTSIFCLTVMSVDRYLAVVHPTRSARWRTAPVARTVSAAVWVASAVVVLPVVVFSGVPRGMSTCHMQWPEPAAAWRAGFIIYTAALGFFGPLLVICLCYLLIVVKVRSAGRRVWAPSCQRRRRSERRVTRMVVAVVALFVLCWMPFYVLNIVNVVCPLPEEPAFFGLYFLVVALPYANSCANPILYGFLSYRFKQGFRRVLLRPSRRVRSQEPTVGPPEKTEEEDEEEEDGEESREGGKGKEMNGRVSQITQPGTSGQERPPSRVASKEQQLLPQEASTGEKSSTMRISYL
T3 sequence (P30872 whole entry): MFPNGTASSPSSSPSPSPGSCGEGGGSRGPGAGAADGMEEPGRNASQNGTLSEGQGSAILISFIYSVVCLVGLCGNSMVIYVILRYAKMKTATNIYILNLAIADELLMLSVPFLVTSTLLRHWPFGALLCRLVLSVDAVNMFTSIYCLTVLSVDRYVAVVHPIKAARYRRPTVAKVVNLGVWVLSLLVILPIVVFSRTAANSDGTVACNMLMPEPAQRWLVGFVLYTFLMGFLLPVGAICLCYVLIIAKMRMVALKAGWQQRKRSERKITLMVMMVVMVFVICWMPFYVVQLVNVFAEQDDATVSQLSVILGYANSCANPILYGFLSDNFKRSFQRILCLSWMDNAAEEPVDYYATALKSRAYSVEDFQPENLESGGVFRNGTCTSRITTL
T4 sequence (P35346 whole entry): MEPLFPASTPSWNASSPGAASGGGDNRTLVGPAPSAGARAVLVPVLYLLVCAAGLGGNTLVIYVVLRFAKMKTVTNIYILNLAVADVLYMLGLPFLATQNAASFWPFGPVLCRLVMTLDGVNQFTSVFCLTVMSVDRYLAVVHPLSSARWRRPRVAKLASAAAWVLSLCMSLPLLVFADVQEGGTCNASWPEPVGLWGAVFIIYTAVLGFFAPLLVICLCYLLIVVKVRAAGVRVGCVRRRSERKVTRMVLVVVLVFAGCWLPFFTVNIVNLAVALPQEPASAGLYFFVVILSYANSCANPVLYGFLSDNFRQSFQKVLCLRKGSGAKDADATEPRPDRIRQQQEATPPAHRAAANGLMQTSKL

Row | Ki (hSSTR3) | Ki (hSSTR4) | Ki (hSSTR1) | Ki (hSSTR5) | Ki (hSSTR2 [1]; [3]) | EC50 (hSSTR2 [2]; [4]) | Compound | Emax (hSSTR2 [2]) | Ki (hSSTR2 [1]) | EC50 (hSSTR2 [2])
1 | 16.3 ± 7.1 nM | 76.3 ± 12.6 nM | > 1000 nM | 0.31 ± 0.1 nM | 0.47 ± 0.03 nM | 9.1 ± 3.9 nM | C[C@@H](O)[C@@H]1NC(=O)[C@H](CCCCN)NC(=O)[C@@H](Cc2c[nH]c3ccccc23)NC(=O)[C@H](Cc2ccncc2)NC(=O)[C@H](Cc2ccccc2)NC(=O)[C@H](CCCNC(=N)N)NC(=O)[C@H](N)CCCCNC(=O)[C@H](Cc2ccccc2)NC1=O [Compound 1, cyclo(DLys-Arg-Phe-4Pal-DTrp-Lys-Thr-Phe)] (HELM PEPTIDE1{[dK].R.F.[O=C([C@H](Cc1ccncc1)N[*:1])[*:2]].[dW].K.T.F}$PEPTIDE1,PEPTIDE1,1:R3-8:R2$$$V2.0) | 96.3 ± 5.5% | – | –
2 | – | – | – | – | – | – | C[C@@H](O)[C@@H]1NC(=O)[C@H](CCCCN)NC(=O)[C@@H](Cc2c[nH]c3ccccc23)NC(=O)[C@H](Cc2ccncc2)NC(=O)[C@H](Cc2ccccc2)NC(=O)[C@H](CCCNC(=N)N)NC(=O)[C@H](NC[C@H](Cc2ccc(O)cc2)NC(=O)CCc2cn(CC(=O)N[C@H](CN[C@@H]3CCCCNC(=O)[C@H](Cc4ccccc4)NC(=O)[C@H]([C@@H](C)O)NC(=O)[C@H](CCCCN)NC(=O)[C@@H](Cc4c[nH]c5ccccc45)NC(=O)[C@H](Cc4ccncc4)NC(=O)[C@H](Cc4ccccc4)NC(=O)[C@H](CCCNC(=N)N)NC3=O)Cc3ccc(O)cc3)nn2)CCCCNC(=O)[C@H](Cc2ccccc2)NC1=O [Compound 5, 1-[(ethan-2-oyl)-Tyr-psi(CH2NH)-cyclo(DLys-Arg-Phe-4Pal-DTrp-Lys-Thr-Phe)],4-[(propan-3-oyl)-Tyr-psi(CH2NH)-cyclo(DLys-Arg-Phe-4Pal-DTrp-Lys-Thr-Phe)]-1,2,3-triazole] | 88.6 ± 1.1% | 0.08 nM | 3.3 nM
3 | – | – | – | – | – | – | C[C@@H](O)[C@@H]1NC(=O)[C@H](CCCCN)NC(=O)[C@@H](Cc2c[nH]c3ccccc23)NC(=O)[C@H](Cc2ccccc2)NC(=O)[C@H](Cc2ccccc2)NC(=O)[C@H](CCCNC(=N)N)NC(=O)[C@H](NC[C@H](Cc2ccc(O)cc2)NC(=O)CCc2cn(CC(=O)N[C@H](CN[C@@H]3CCCCNC(=O)[C@H](Cc4ccc(F)cc4)NC(=O)[C@H]([C@@H](C)O)NC(=O)[C@H](CCCCN)NC(=O)[C@@H](Cc4c[nH]c5ccccc45)NC(=O)[C@H](Cc4ccccc4)NC(=O)[C@H](Cc4ccccc4)NC(=O)[C@H](CCCNC(=N)N)NC3=O)Cc3ccc(O)cc3)nn2)CCCCNC(=O)[C@H](Cc2ccc(F)cc2)NC1=O [Compound 6, 1-[(ethan-2-oyl)-Tyr-psi(CH2NH)-cyclo(DLys-Arg-Phe-Phe-DTrp-Lys-Thr-4FPhe)],4-[(propan-3-oyl)-Tyr-psi(CH2NH)-cyclo(DLys-Arg-Phe-Phe-DTrp-Lys-Thr-4FPhe)]-1,2,3-triazole] | 93.6 ± 4.1% | 0.38 nM | 74.6 ± 15.6 nM
4 | – | – | – | – | – | – | C[C@@H](O)[C@@H]1NC(=O)[C@H](CCCCN)NC(=O)[C@@H](Cc2c[nH]c3ccccc23)NC(=O)[C@H](Cc2ccccc2)NC(=O)[C@H](Cc2ccccc2)NC(=O)[C@H](CCCNC(=N)N)NC(=O)[C@H](NC[C@H](Cc2ccc(O)cc2)NC(=O)CCc2cn(CC(=O)N[C@H](CN[C@@H]3CCCCNC(=O)[C@H](Cc4ccc(O)cc4)NC(=O)[C@H]([C@@H](C)O)NC(=O)[C@H](CCCCN)NC(=O)[C@@H](Cc4c[nH]c5ccccc45)NC(=O)[C@H](Cc4ccccc4)NC(=O)[C@H](Cc4ccccc4)NC(=O)[C@H](CCCNC(=N)N)NC3=O)Cc3ccc(O)cc3)nn2)CCCCNC(=O)[C@H](Cc2ccc(O)cc2)NC1=O [Compound 7, 1-[(ethan-2-oyl)-Tyr-psi(CH2NH)-cyclo(DLys-Arg-Phe-Phe-DTrp-Lys-Thr-Tyr)],4-[(propan-3-oyl)-Tyr-psi(CH2NH)-cyclo(DLys-Arg-Phe-Phe-DTrp-Lys-Thr-Tyr)]-1,2,3-triazole] | 97.4 ± 1.2% | 0.17 nM | 28.5 ± 11.5 nM
5 | 5 nM | 112 ± 18.6 nM | 271 ± 160 nM | 0.32 nM | 0.02 ± 0.02 nM | 4.4 ± 3.7 nM | C[C@@H](O)[C@@H]1NC(=O)[C@H](CCCCN)NC(=O)[C@@H](Cc2c[nH]c3ccccc23)NC(=O)[C@H](Cc2ccncc2)NC(=O)[C@H](Cc2ccccc2)NC(=O)[C@H](CCCNC(=N)N)NC(=O)[C@H](NC[C@@H](N)Cc2ccc(O)cc2)CCCCNC(=O)[C@H](Cc2ccccc2)NC1=O [Compound 21, Tyr-psi(CH2NH)-cyclo(DLys-Arg-Phe-4Pal-DTrp-Lys-Thr-Phe)] | 103 ± 0.2% | – | –

— patent US9777039B2, “Somatostatin analogs and dimers thereof” (Ipsen Pharma S.A.S., priority 2012, dated 2017)
